Read-outs that look alike come from different tables or passages of the source. Marks after values point to notes of the source that are not given here.
Columns and labels:
P388/CPA = assay: Antitumor activity against IP-implanted P388/CPA leukemia in mice; format: in vivo, murine
human MX-1 mammary tumor [1] = assay: In vivo antitumor activity against i.c.-implanted human MX-1 mammary tumor xenograft; parameters: species or system mouse; details: for Median % ILS: I.C.-implanted MX-1, optimal doses (LD10 or less), schedule QD1-5, I.P., based on dying mice only
From the text: (§1) The antitumor activity data of the acyl derivatives of DM-PEN vs MX-1 human mammary tumor xenograft implanted s.c. or i.c. with intraperitoneal (i.p.) or oral drug treatment are shown in Table 1 below.
Table 2Comparative Activity of PEN, DM-PEN and DM-ACYL-PEN Against […] Human MX-1 Mammary Tumor at Optimal Doses (LD10 or Less) and Schedule (QD1-5) Administered I.P.

Cytotoxicity in vitro = details: without metabolism
P388/BCNU = assay: Antitumor activity against IP-implanted P388/BCNU leukemia in mice
P388/L-PAM = assay: Antitumor activity against IP-implanted P388/L-PAM leukemia in mice
human MX-1 mammary tumor [2] = assay: In vivo antitumor activity against s.c.-implanted human MX-1 mammary tumor xenograft; details: sc MX-1
From the text: as §1

[3] = rats; muscle tremors, incoordination, convulsions and reduced activity; cited from earlier work
[4] = 14C-penclomedine, tumor-bearing rats; cited from earlier work
[5] = Anti-cancer activity (test not described)
U251 CNS = assay: In vivo antitumor activity against s.c.-implanted human tumor xenograft U251; details: sc U251; IP 90 mg/kg/dose, Days 19-23
ZR-75-1 mammary = assay: In vivo antitumor activity against s.c.-implanted human tumor xenograft ZR-75-1; details: sc ZR-75-1
[6] = IP 60.0 MG/KG/DOSE, Q1D X 5 (1)
[7] = IP 90.0 MG/KG/DOSE, Q1D X 5 (1)
[8] = IP 135.0 MG/KG/DOSE, Q1D X 5 (1)
[9] = P388/L-PAM, IP 60.0 MG/KG/DOSE, Q1D X 5 (1)
[10] = P388/L-PAM, IP 90.0 MG/KG/DOSE, Q1D X 5 (1)
[11] = P388/L-PAM, IP 135.0 MG/KG/DOSE, Q1D X 5 (1)
[12] = P388/0, IP 60.0 MG/KG/DOSE, Q1D X 5 (1)
[13] = P388/0, IP 90.0 MG/KG/DOSE, Q1D X 5 (1)
[14] = P388/0, IP 135.0 MG/KG/DOSE, Q1D X 5 (1)
[15] = IP 30.0 MG/KG/DOSE, Q1D X 1 (1)
[16] = P388/0, IP 20.0 MG/KG/DOSE, Q1D X 1 (1)
[17] = highest nontoxic doses evaluated, difference to DM-PEN
[18] = highest nontoxic doses evaluated, difference to PEN

## O=P1(N(CCCl)CCCl)NCCCO1 (stereo not shown) [CPA, cyclophosphamide]
P388/0; P388/0, IP 175.0 MG/KG/DOSE, Q1D X 1 (1)
  50-DAY SURV./ TOTAL: 1 / 6
P388/0; P388/0, IP 265.0 MG/KG/DOSE, Q1D X 1 (1)
  50-DAY SURV./ TOTAL: 6 / 6
P388/CPA; IP 175.0 MG/KG/DOSE, Q1D X 1 (1)
  50-DAY SURV./ TOTAL: 0 / 6
P388/CPA; IP 265.0 MG/KG/DOSE, Q1D X 1 (1)
  50-DAY SURV./ TOTAL: 0 / 6

## COc1nc(C(Cl)(Cl)Cl)c(Cl)c(OC(=O)c2cccs2)c1Cl [DM-TC-PEN]
Human MX-1 mammary tumor [1]
  Median % ILS: 100^d %

## COc1nc(C(Cl)(Cl)Cl)c(Cl)c(O)c1Cl [DM-PEN, 3,5-dichloro-2-methoxy-4-hydroxy-6-(trichloromethyl)pyridine]
Human MX-1 mammary tumor [1]
  Median % ILS: 60%
Cytotoxicity in vitro
  cytotoxic agents in vitro (in words): inactive
P388/BCNU; [6]
  50-DAY SURV./ TOTAL: 0 / 6
  APPROX. NET LOG10 CHANGE IN TUMOR BURDEN AT END OF Rx: +0.6
P388/BCNU; [7]
  50-DAY SURV./ TOTAL: 0 / 6
  % ILS: +65%
P388/BCNU; [8]
  50-DAY SURV./ TOTAL: 0 / 6
  Lethality at the stated dosage (LD level): LD17
P388/L-PAM; [9]
  50-DAY SDRV./ TOTAL: 0 / 8
  APPROX. NET LOG10 CHANGE IN TUMOR BURDEN AT END OF Rx: +1.5
  MEDIAN DAY OF DEATH: 13.6
P388/L-PAM; [10]
  50-DAY SDRV./ TOTAL: 0 / 6
  APPROX. NET LOG10 CHANGE IN TUMOR BURDEN AT END OF Rx: +1.5
P388/L-PAM; [11]
  50-DAY SDRV./ TOTAL: 0 / 6
  APPROX. NET LOG10 CHANGE IN TUMOR BURDEN AT END OF Rx: +1.5
  Lethality at the stated dosage (LD level): 1.033
P388/0; [12]
  50-DAY SURV./ TOTAL: 0 / 6
  MEDIAN DAY OF DEATH: 18.0
P388/0; [13]
  50-DAY SURV./ TOTAL: 0 / 6
  MEDIAN DAY OF DEATH: 18.0
P388/0; [14]
  50-DAY SURV./ TOTAL: 0 / 6
  MEDIAN DAY OF DEATH: 8.6
P388/CPA; [6]
  50-DAY SURV./ TOTAL: 0 / 6
P388/CPA; [7]
  50-DAY SURV./ TOTAL: 0 / 6
P388/CPA; [8]
  50-DAY SURV./ TOTAL: 0 / 6

## COc1nc(C(Cl)(Cl)Cl)c(Cl)c(OC(=O)c2ccncc2)c1Cl [DM-IN-PEN]
Human MX-1 mammary tumor [2]; IP 90 mg/kg/dose, Days 12-16
  Lethality at the stated dosage (LD level): 90 (LD20)

## COc1nc(C(Cl)(Cl)Cl)c(Cl)c(OC(=O)c2ccccc2)c1Cl [DM-B-PEN]
Human MX-1 mammary tumor [1]; ic MX-1, IP 135 mg/kg/dose, Days 1-5
  Tumor-Free-Surv/Total: . 0/5

## O=NN(CCCl)C(=O)NCCCl [BCNU, carmustine]
P388/BCNU; IP 20.0 MG/KG/DOSE, Q1D X 1 (1)
  50-DAY SURV./ TOTAL: 0 / 6
P388/BCNU; [15]
  50-DAY SURV./ TOTAL: 0 / 6
  MEDIAN DAY OF DEATH: 6.5
P388/0; [16]
  50-DAY SURV./ TOTAL: 3 / 6
  % ILS: +145%
  APPROX. NET LOG10 CHANGE IN TUMOR BURDEN AT END OF Rx: ca-6.8
P388/0; P388/0, IP 30.0 MG/KG/DOSE, Q1D X 1 (1)
  50-DAY SURV./ TOTAL: 6 / 6

## COc1nc(C(Cl)(Cl)Cl)c(Cl)c(OC)c1Cl [PEN, 3,5-dichloro-2,4-dimethoxy-6-(trichloromethyl)pyridine]
[3]
  neurotoxicity: Dose related neurotoxicity
Human MX-1 mammary tumor [1]
  Median % ILS: 88%
[4]
  radioactive species in the brain: predominant radioactive species in the brain was penclomedine
Cytotoxicity in vitro
  cytotoxic agents in vitro (in words): inactive
P388/BCNU; [6]
  50-DAY SURV./ TOTAL: 0 / 6
P388/BCNU; [7]
  50-DAY SURV./ TOTAL: 0 / 6
P388/BCNU; [8]
  50-DAY SURV./ TOTAL: 0 / 6
  MEDIAN DAY OF DEATH: 11.5
P388/L-PAM; [9]
  50-DAY SDRV./ TOTAL: 0 / 6
P388/L-PAM; [10]
  50-DAY SDRV./ TOTAL: 0 / 6
  APPROX. NET LOG10 CHANGE IN TUMOR BURDEN AT END OF Rx: +1.5
P388/L-PAM; [11]
  50-DAY SDRV./ TOTAL: 0 / 6
  APPROX. NET LOG10 CHANGE IN TUMOR BURDEN AT END OF Rx: +1.5
P388/0; [12]
  50-DAY SURV./ TOTAL: 0 / 6
  MEDIAN DAY OF DEATH: 14.5
P388/0; [13]
  50-DAY SURV./ TOTAL: 0 / 6
  APPROX. NET LOG10 CHANGE IN TUMOR BURDEN AT END OF Rx: -0.6
P388/0; [14]
  50-DAY SURV./ TOTAL: 0 / 6
  APPROX. NET LOG10 CHANGE IN TUMOR BURDEN AT END OF Rx: -4.6
P388/CPA; [6]
  50-DAY SURV./ TOTAL: 0 / 6
  MEDIAN DAY OF DEATH: 10.5
P388/CPA; [7]
  50-DAY SURV./ TOTAL: 0 / 6
  MEDIAN DAY OF DEATH: 10.5
P388/CPA; [8]
  50-DAY SURV./ TOTAL: 0 / 6
  MEDIAN DAY OF DEATH: 10.5

## CCOc1nc(C(Cl)(Cl)Cl)c(Cl)c(OCC)c1Cl [3,5-dichloro-4,6-diethoxy-2-(trichloromethyl)pyridine]
[5]
  anti-cancer activity (in words): show active anti-cancer activity

## COc1nc(C(Cl)(Cl)Cl)c(Cl)c(OC(C)=O)c1Cl [DM-A-PEN]
U251 CNS
  T-C: 15.7 days
Human MX-1 mammary tumor [2]; IP 60 mg/kg/dose, Days 15-19
  Lethality at the stated dosage (LD level): 60 (LD20)
P388/BCNU; [6]
  50-DAY SURV./ TOTAL: 1 / 6
P388/BCNU; [7]
  50-DAY SURV./ TOTAL: 0 / 6
P388/BCNU; [8]
  50-DAY SURV./ TOTAL: 0 / 6
  % ILS: +133%
  Lethality at the stated dosage (LD level): LD17
P388/BCNU; [17]
  more active than DM-PEN, log cell kill: 1.5 log cell kill
P388/BCNU; [18]
  more active than PEN, log cell kill: 3.5 log cell kill
P388/L-PAM; [9]
  50-DAY SDRV./ TOTAL: 0 / 6
P388/L-PAM; [10]
  50-DAY SDRV./ TOTAL: 0 / 6
P388/L-PAM; [11]
  50-DAY SDRV./ TOTAL: 0 / 6
  Lethality at the stated dosage (LD level): LD17
P388/L-PAM; P388/L-PAM, difference to PEN or DM-PEN
  more active than PEN or DM-PEN, log cell kill: 0.2-0.3 log cell kill
ZR-75-1 mammary; IP 60 mg/kg/dose, Days 10-14
  T-C: 10.6 days
ZR-75-1 mammary; IP 90 mg/kg/dose, Days 8-12
  T-C: 14.1 days
P388/0; [12]
  50-DAY SURV./ TOTAL: 0 / 6
P388/0; [13]
  50-DAY SURV./ TOTAL: 0 / 6
  MEDIAN DAY OF DEATH: 21.5
P388/0; [14]
  50-DAY SURV./ TOTAL: 0 / 6
  Lethality at the stated dosage (LD level): LD33
  MEDIAN DAY OF DEATH: 28.5
P388/0; P388/0, highest nontoxic doses evaluated, difference to PEN
  more active than PEN, log cell kill: 0.4 log cell kill
P388/0; P388/O, highest nontoxic doses evaluated, difference to DM-PEN
  more active than DM-PEN, log cell kill: 1.9 log cell kill
P388/CPA; [6]
  50-DAY SURV./ TOTAL: 0 / 6
P388/CPA; [7]
  50-DAY SURV./ TOTAL: 0 / 6
  % ILS: +66%
  MEDIAN DAY OF DEATH: 20.5
P388/CPA; [8]
  50-DAY SURV./ TOTAL: 0 / 6
  % ILS: +127%
P388/CPA; [17]
  more active than DM-PEN, log cell kill: 4.6 log cell kill
P388/CPA; [18]
  more active than PEN, log cell kill: 7.4 log cell kill

## N[C@@H](Cc1ccc(N(CCCl)CCCl)cc1)C(=O)O [L-PAM, melphalan]
P388/L-PAM; mouse, in vivo, ip, 15 mg/kg
  50-DAY SDRV./ TOTAL: 0 / 6
  APPROX. NET LOG10 CHANGE IN TUMOR BURDEN AT END OF Rx: -1.6
  MEDIAN DAY OF DEATH: 16.0
P388/L-PAM; mouse, in vivo, ip, 20 mg/kg
  50-DAY SDRV./ TOTAL: 0/6
  APPROX. NET LOG10 CHANGE IN TUMOR BURDEN AT END OF Rx: -1.6
  MEDIAN DAY OF DEATH: 16.0
P388/0; mouse, in vivo, ip, 15 mg/kg
  50-DAY SURV./ TOTAL: 6 / 6
P388/0; mouse, in vivo, ip, 20 mg/kg
  50-DAY SURV./ TOTAL: 6 / 6
  APPROX. NET LOG10 CHANGE IN TUMOR BURDEN AT END OF Rx: ca -6.6

## COCC(=O)Oc1c(Cl)c(OC)nc(C(Cl)(Cl)Cl)c1Cl [DM-MA-PEN]
Human MX-1 mammary tumor [1]
  Median % ILS: 126^a %
Human MX-1 mammary tumor [1]; ic MX-1, IP 90 mg/kg/dose, Days 1-5
  Median % ILS (dying mice only): +126%

## CCCCCCCC(=O)Oc1c(Cl)c(OC)nc(C(Cl)(Cl)Cl)c1Cl [DM-O-PEN]
Human MX-1 mammary tumor [1]
  Median % ILS: 121^b %

## COc1nc(C(Cl)(Cl)Cl)c(Cl)c(OC(=O)CI)c1Cl [DM-IA-PEN]
Human MX-1 mammary tumor [2]; IP 60 mg/kg/dose, Days 12-16
  Lethality at the stated dosage (LD level): 60 (LD40)

## CCOc1c(Cl)c(OC)nc(C(Cl)(Cl)Cl)c1Cl [3,5-dichloro-4-ethoxy-6-methoxy-2-(trichloromethyl)pyridine]
[5]
  anti-cancer activity (in words): show active anti-cancer activity

## COc1nc(C(Cl)(Cl)Cl)c(Cl)c(OC(=O)c2ccco2)c1Cl [DM-F-PEN]
Human MX-1 mammary tumor [1]
  Median % ILS: 108^c %
